Results as given in patent publication US20090047221A1 (NIPRI LIMITED, priority 2004, published 2009).
pIC50: −log10 of the molar value. Like-named read-outs stand apart in the source and are kept apart here.

Assays:
Format in all cases: cell-based
MDA-MB-468 = experiment: MTT assay (anti-proliferative activity); details: read-out: IC 50 MDA-MB-468
Description: (§1) The MTT assay was used initially to determine the anti-proliferative activity of the test compounds. In the MTT assay a yellow thiazolyl blue tetrazolium bromide salt (MTT) is reduced, in metabolically active cells, to form insoluble purple formazan crystals which are solubilised by the addition of dimethyl sulphoxide (DMSO).
(§2) Wells containing medium only were used as blanks. Following the attachment period, cells were treated with appropriate drug concentrations (20 μl added per well). 40 mg/ml stock drug solutions, in DMSO, were stored at −20° C. and on the day of drug treatment working solutions of 4 mg/ml were prepared in medium which was further diluted to achieve final drug dilution volumes of 20 μl. Initial screening was determined over a concentration range of 1-200 μg/ml. […] Cells were exposed to drug for 96 h continual exposure (37° C., 5% CO2). Following the 96 h incubation, 50 μl MTT solution (1 g MTT/500 ml PBS) was added per well and the plates were further incubated for 4 h (37° C., 5% CO2). After incubation the MTT and medium was removed from the wells and 100 μl DMSO added per well. Plates were agitated on an orbital mixer platform (Stuart Scientific) for 10 minutes. Absorbance was measured at 570 nm on a Biotrak II (Amersham Bioscience) plate reader. IC50 values were calculated comparing control and drug treated cells.

MCF-7 = experiment: MTT assay (anti-proliferative activity); details: read-out: IC 50 MCF-7
Description: as §1, §2

SkMel28 = experiment: MTT assay (anti-proliferative activity); details: read-out: IC 50 SkMel28
Description: as §1, §2

MalMe3M = experiment: MTT assay (anti-proliferative activity); details: 96 h continual exposure, read-out: IC 50 MalMe3M
Description: as §1, §2

[1] = test system: breast cancer (MDA-MB-468 and MCF-7 cell lines) and melanoma cell lines (MalMe3, SkMe128); experiment: Cell cycle analysis by flow cytometry (propidium iodide); apoptosis as cells in sub G0/G1 (pre G0) peak; details: following treatment with IC70 concentration of compound
Description: Assessment of cell cycle analysis was performed using propidium iodide staining of cells and subsequent analysis on a Beckton Dickinson flow cytometer. […] The following day the medium was removed and replaced with 5 ml medium per flask containing the appropriate drug concentrations to be tested. 40 mg/ml stock drug solutions in DMSO were stores at −20° C. and on the day off drug treatment working solutions of 4 mg/ml were prepared in medium from which the final drug dilutions were prepared. Cells were maintained in an incubator (37° C., 5% CO2) for up to 96 h post treatment. After 24, 48, 72 or 96 h time points the medium from each flask was collected, stored on ice, and the remaining cells in the flasks were trypsinised by aiding 1 ml trypsin-EDTA solution to each flask. Cells were replaced into the incubator for 10 min to allow them to detach from the plastic plate. The cells in each flask were collected by adding the appropriate medium removed from each flask back to the corresponding flask and then placing medium containing both the attached and floating cells into a 15 ml tube. Cells were centrifuged at 4° C. for 5 min at 1500 rpm and the supernatant removed from each tube. The remaining cells were washed twice in ice cold PBS and then fixed in ice cold methanol overnight at −20° C. On the day of analysis of cells each tube was centrifuged at 4° C. for 5 min at 1500 rpm and the methanol removed and the cells washed twice in ice cold PBS. 20 μl propidium iodide solution (1 mg/ml) and 20 μl RNase A (10 mg/ml solution) were added to 1 ml PBS per tube and the cells were incubated for 30 min at 37° C. Cells were analysed on the flow cytometer and cell cycle changes were assessed.

[2] = Synergy with known cancer drugs measured using an MTT assay (FIGS. 9a-9c); details: ALM-54 at 0.5 μg
Text: as §1, with “(DMSO). Absorbance readings can then be determined spectrophotometrically and a relationship established between control untreated cells and drug treated cells enabling the quantification of anti-proliferative changes as a result of drug treatment (Mosmann, 1983).” for “(DMSO).”
(§3) Wells containing medium only were used as blanks. Following the attachment period, cells were treated with appropriate drug concentrations (20 μl added per well). 40 mg/ml stock drug solutions, in DMSO, were stored at −20° C. and on the day of drug treatment working solutions of 4 mg/ml were prepared in medium which was further diluted to achieve final drug dilution volumes of 20 μl. Initial screening was determined over a concentration range of 1-200 μg/ml. For potent compounds the assay was repeated over a narrower concentration range to determine accurate IC50 values. Cells were exposed to drug for 96 h continual exposure (37° C., 5% CO2). Following the 96 h incubation, 50 μl MTT solution (1 g MTT/500 ml PBS) was added per well and the plates were further incubated for 4 h (37° C., 5% CO2). After incubation the MTT and medium was removed from the wells and 100 μl DMSO added per well. Plates were agitated on an orbital mixer platform (Stuart Scientific) for 10 minutes. Absorbance was measured at 570 nm on a Biotrak II (Amersham Bioscience) plate reader. IC50 values were calculated comparing control and drug treated cells.

PNT2 = experiment: MTT assay (anti-proliferative activity)
Text: as §1, with “(DMSO). Absorbance readings can then be determined spectrophotometrically and a relationship established between control untreated cells and drug treated cells enabling the quantification of anti-proliferative changes as a result of drug treatment (Mosmann, 1983).” for “(DMSO).”
as §3

LNCAP = experiment: MTT assay (anti-proliferative activity)
Text: as §1, with “(DMSO). Absorbance readings can then be determined spectrophotometrically and a relationship established between control untreated cells and drug treated cells enabling the quantification of anti-proliferative changes as a result of drug treatment (Mosmann, 1983).” for “(DMSO).”
as §3

HCT−/− = experiment: MTT assay (anti-proliferative activity)
Text: as §1, with “(DMSO). Absorbance readings can then be determined spectrophotometrically and a relationship established between control untreated cells and drug treated cells enabling the quantification of anti-proliferative changes as a result of drug treatment (Mosmann, 1983).” for “(DMSO).”
as §3

RKO = experiment: MTT assay (anti-proliferative activity)
Text: as §1, with “(DMSO). Absorbance readings can then be determined spectrophotometrically and a relationship established between control untreated cells and drug treated cells enabling the quantification of anti-proliferative changes as a result of drug treatment (Mosmann, 1983).” for “(DMSO).”
as §3

ZR-75-1 = experiment: MTT assay (anti-proliferative activity)
Text: as §1, with “(DMSO). Absorbance readings can then be determined spectrophotometrically and a relationship established between control untreated cells and drug treated cells enabling the quantification of anti-proliferative changes as a result of drug treatment (Mosmann, 1983).” for “(DMSO).”
as §3

PC3 = experiment: MTT assay (anti-proliferative activity)
Text: as §1, with “(DMSO). Absorbance readings can then be determined spectrophotometrically and a relationship established between control untreated cells and drug treated cells enabling the quantification of anti-proliferative changes as a result of drug treatment (Mosmann, 1983).” for “(DMSO).”
as §3

HT29 = experiment: MTT assay (anti-proliferative activity)
Text: as §1, with “(DMSO). Absorbance readings can then be determined spectrophotometrically and a relationship established between control untreated cells and drug treated cells enabling the quantification of anti-proliferative changes as a result of drug treatment (Mosmann, 1983).” for “(DMSO).”
as §3

H23 = experiment: MTT assay (anti-proliferative activity)
Text: as §1, with “(DMSO). Absorbance readings can then be determined spectrophotometrically and a relationship established between control untreated cells and drug treated cells enabling the quantification of anti-proliferative changes as a result of drug treatment (Mosmann, 1983).” for “(DMSO).”
as §3

HCT+/+ = experiment: MTT assay (anti-proliferative activity)
Text: as §1, with “(DMSO). Absorbance readings can then be determined spectrophotometrically and a relationship established between control untreated cells and drug treated cells enabling the quantification of anti-proliferative changes as a result of drug treatment (Mosmann, 1983).” for “(DMSO).”
as §3

[3] = Homo sapiens, MDA-MB-468, 96 h continual exposure
[4] = Homo sapiens, MCF7, 96 h continual exposure
[5] = Homo sapiens, SK-MEL-28, 96 h continual exposure

pIC50 (MDA-MB-468; 96 h continual exposure)	pIC50 (MCF-7; 96 h continual exposure)	pIC50 (MDA-MB-468; [3])	pIC50 (MCF-7; [4])	Molecule	pIC50 (SkMel28; 96 h continual exposure)	pIC50 (MalMe3M)	% Cells in Pre G0 phase of Cell Cycle [1]	pIC50 (SkMel28; [5])	pIC50 (MalMe3M; Homo sapiens, Malme-3M)	further results
5.64	5.03			CC1Cc2ccc(C(=O)NC(Cc3ccccc3)C(=O)OC(C)(C)C)c(O)c2C(=O)O1 (mixture of isomers) [ALM-53, L-Phenyl Alanine Tert-Butyl Ester Amide]	4.15	4.93	8.9%			
4.99	4.89			CCCCCCCCCCCCNC(=O)c1ccc2c(c1O)C(=O)OC(C)C2 (racemic) [ALM-51, Dodecyl Amide]	4.48	4.59	20.6%			
4.90	4.67			CCCCCCCC/C=C\CCCCCCCCNC(=O)c1ccc2c(c1O)C(=O)OC(C)C2 (racemic) [ALM-52, Oleyl Amide]	3.61	4.28	19.8%			
		3.57	3.47	COC(=O)c1ccc2c(c1O)C(=O)OCC2 [ALM-68, 8-hydroxy-1-oxo-isochroman-7-carboxylic acid methyl ester]				3.25	3.29	
4.84	4.74			CC(C)(C)OC(=O)[C@H](Cc1ccccc1)NC(=O)c1ccc2c(c1O)C(=O)OCC2 [ALM-69, L-Phenyl Alanine Tert-Butyl Ester Amide of Compound ALM-68]	4.14	4.66	14.4%			
		3.47	3.40	COC(=O)c1ccc2c(c1O)C(=O)OC(C)(C)C2 [ALM-71, 8-hydroxy-3,3-dimethyl-1-oxo-isochroman-7-carboxylic acid methyl ester]				< 3.10	< 3.10	
		< 3.07	< 3.07	CC1(C)Cc2ccc(C(=O)O)c(O)c2C(=O)O1 [ALM-72, 8-hydroxy-3,3-dimethyl-1-oxo-isochroman-7-carboxylic acid]				< 3.07	< 3.07	
5.04	4.83			CC(C)(C)OC(=O)[C@H](Cc1ccccc1)NC(=O)c1ccc2c(c1O)C(=O)OC(C)(C)C2 [ALM-73, L-Phenyl Alanine Tert-Butyl Ester Amide of Compound ALM-71]	4.86	5.04	25.3%			
		< 3.12	< 3.12	CC1Cc2ccc3c(c2C(=O)O1)OC(C)(C)OC3=O (stereo not drawn) [ALM-75, Acetonide Compound]				< 3.12	< 3.12	

Further lines, the molecule ahead of its results:

Molecule	pIC50 (MDA-MB-468; 96 h continual exposure)	pIC50 (MCF-7; 96 h continual exposure)	pIC50 (MDA-MB-468; [3])	pIC50 (MCF-7; [4])	pIC50 (SkMel28; 96 h continual exposure)	pIC50 (MalMe3M)	% Cells in Pre G0 phase of Cell Cycle [1]	pIC50 (SkMel28; [5])	pIC50 (MalMe3M; Homo sapiens, Malme-3M)	further results
CC1Cc2ccc(C(=O)NC(Cc3ccccc3)C(=O)O)c(O)c2C(=O)O1 (mixture of isomers) [ALM-54]	4.97	4.79			4.34	4.87	12.8%			synergy with irinotecan ([2]; FIG. 9a): synergy; synergy with vinorelbine ([2]; FIG. 9b): synergy; synergy with cisplatin ([2]; FIG. 9c): synergy; pIC50 (PNT2): 5.27; pIC50 (LNCAP): 5.33; pIC50 (HCT−/−): 4.97; pIC50 (RKO): 5.57; pIC50 (ZR-75-1): 6.89; pIC50 (PC3): 5.27; pIC50 (HT29): 5.89; pIC50 (H23): 5.70; pIC50 (HCT+/+): 4.79
CC1Cc2ccc(F)c(O)c2C(=O)O1 (racemic) [ALM-22, Racemic Ortho-Fluoromellein]			4.21	3.76			16.5%	4.01	4.01	
CC1Cc2ccc(I)c(O)c2C(=O)O1 (racemic) [ALM-25, Racemic Ortho-Iodomellein]			4.14	4.14			37.0%	4.10	4.12	
CC1Cc2ccc(C(=O)Nc3ccccc3)c(O)c2C(=O)O1 (racemic) [ALM-45, Aniline Amide]	5.00	4.57			3.77	4.47	6.4%			
C[C@@H]1Cc2ccc(C(=O)N[C@@H](Cc3ccccc3)C(=O)O)c(O)c2C(=O)O1 [ALM-32, ochratoxin B]	4.72	4.72			4.67	4.87				
O=C(N[C@@H](Cc1ccccc1)C(=O)O)c1ccc2c(c1O)C(=O)OCC2 [ALM-70, L-Phenyl Alanine Amide of Compound ALM-68]	5.85	5.08			4.37	4.74	32.7%			
Racemic Kigelin Oleyl Ester [ALM-2]	< 3.40	< 3.40			< 3.40	< 3.40				
Racemic Mellein Oleyl Ester [ALM-17]	< 3.35	< 3.35			< 3.35	< 3.35				
